Source: publication PMC10066365, “Nemacol is a small molecule inhibitor of C. elegans vesicular acetylcholine transporter with anthelmintic potential” (Nature Communications, 2023)
Read-outs that look alike come from different tables or passages of the source.

Legend:
[1] = biological target: T1, rat VAChT (Rattus norvegicus, UniProt Q62666); experiment: [3H]Vesamicol competitive radioligand binding, PC12 cells expressing ratVAChT; conditions: ratVAChT Ki, [3H]Vesamicol displacement, mean
T1 construct: expressed in transfected cells; host or cells: rat PC12 (PC12 A123.7) cells, stably transfected; shared by Dr. Ali Roghani (Texas Tech University)
T1 sequence (Q62666 1-530): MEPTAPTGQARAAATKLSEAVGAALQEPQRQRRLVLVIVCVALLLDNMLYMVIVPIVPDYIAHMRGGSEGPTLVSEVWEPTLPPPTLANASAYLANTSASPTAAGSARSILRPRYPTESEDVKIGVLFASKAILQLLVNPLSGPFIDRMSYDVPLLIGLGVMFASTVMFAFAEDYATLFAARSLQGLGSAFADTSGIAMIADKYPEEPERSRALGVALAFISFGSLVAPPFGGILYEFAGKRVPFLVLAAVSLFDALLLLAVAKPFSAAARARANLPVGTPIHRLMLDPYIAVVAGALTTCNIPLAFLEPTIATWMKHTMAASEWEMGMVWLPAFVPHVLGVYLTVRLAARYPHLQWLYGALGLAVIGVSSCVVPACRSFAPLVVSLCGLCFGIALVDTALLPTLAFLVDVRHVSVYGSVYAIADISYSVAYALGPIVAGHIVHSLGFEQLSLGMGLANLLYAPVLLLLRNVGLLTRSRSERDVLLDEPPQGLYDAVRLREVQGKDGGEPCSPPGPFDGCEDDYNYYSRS

[2] = system: C. elegans unc-17 mutants; conditions: 60 min, average of 3 biological repeats
Method: Significance was calculated using Fisher’s method (one-sided comparisons; see 'Methods'). […] Worms were incubated on the plates for 60 min.
Locomotor phenotype analyses were done in 24-well plates with 1 mL of MYOB substrate (27.5 g Trizma HCl, 12 g Trizma Base, 230 g bacto tryptone, 10 g NaCl, 0.4 g cholesterol (95%)) seeded with 25 µL of OP50 Escherichia coli on each well. Each compound was added to the MYOB substrate before pouring to achieve the desired final concentrations of 30 µM or 60 µM after diffusion through the media. Synchronized young adult worms are transferred into each well using a platinum wire pick. A Leica MZ75 stereomicroscope was used to visualize the movement of worms on the solid substrate. The specific dominant locomotor phenotype (i.e. ‘Punc’, ‘paralyzed’, ‘coiler’ or ‘wild-type locomotion’) was scored after the touch on the head with a platinum wire over a ~3–5 s of observation. […] Coiled animals were not scored as paralyzed despite sometimes not responding to light touch.

[3] = system: Pristionchus pacificus; experiment: Pristionchus pacificus motor disruption dose-response on solid media, 1 h; conditions: for mean % any phene (coiled, jerky-Unc or paralyzed): Pristionchus pacificus young adults, mean of three biological replicates
[4] = unc-17 (e245), 15 µM, adult worms
[5] = unc-17 (e245), 30 µM, adult worms
[6] = unc-17 (e245), 60 µM, adult worms
[7] = unc-17 (e245), 120 µM, adult worms
[8] = unc-17 (e245), 240 µM, adult worms

## O[C@@H]1CCCC[C@H]1N1CCC(c2ccccc2)CC1 (racemic) [vesamicol, reference compound]
[1]
  Ki: 21 nM
[2]; [4]
  Fraction Coiled: 0.65
  Fraction Jerky-Unc: 0.35
  Fraction No Phenotype: 0.00
  Fraction Parayzed: 0.00
[2]; [5]
  Fraction Coiled: 0.74
  Fraction Jerky-Unc: 0.24
  Fraction No Phenotype: 0.00
  Fraction Parayzed: 0.0185
[2]; [6]
  Fraction Coiled: 0.70
  Fraction Jerky-Unc: 0.24
  Fraction No Phenotype: 0.00
  Fraction Parayzed: 0.0556
[2]; [7]
  Fraction Coiled: 0.74
  Fraction Jerky-Unc: 0.14
  Fraction No Phenotype: 0.00
  Fraction Parayzed: 0.12
[2]; [8]
  Fraction Coiled: 0.72
  Fraction Jerky-Unc: 0.15
  Fraction No Phenotype: 0.00
  Fraction Parayzed: 0.13
[2]; unc-17 (md414), 15 µM
  Fraction Coiled: 0.00
  Fraction Jerky-Unc: 0.037
  Fraction No Phenotype: 0.96
  Fraction Parayzed: 0.00
[2]; unc-17 (md414), 30 µM
  Fraction Coiled: 0.00
  Fraction Jerky-Unc: 0.0741
  Fraction No Phenotype: 0.93
  Fraction Parayzed: 0.00
[2]; unc-17 (md414), 60 µM
  Fraction Coiled: 0.00
  Fraction Jerky-Unc: 0.24
  Fraction No Phenotype: 0.76
  Fraction Parayzed: 0.00
[2]; unc-17 (md414), 120 µM
  Fraction Coiled: 0.00
  Fraction Jerky-Unc: 0.43
  Fraction No Phenotype: 0.57
  Fraction Parayzed: 0.00
[2]; unc-17 (md414), 240 µM
  Fraction Coiled: 0.037
  Fraction Jerky-Unc: 0.61
  Fraction No Phenotype: 0.35
  Fraction Parayzed: 0.00
[3]; conc 3.75, observed at one hour
  mean % any phene (coiled, jerky-Unc or paralyzed): 0%
[3]; conc 15, observed at one hour
  mean % any phene (coiled, jerky-Unc or paralyzed): 0.8333%
[3]; conc 60, observed at one hour
  mean % any phene (coiled, jerky-Unc or paralyzed): 9.167%
[3]; Pristionchus pacificus, 1 h, read-out: P. pacificus motor disruption EC50
  EC50: > 60000 nM
